Measured values: US12338256B2, “Aza-tetracyclic oxazepine compounds and uses thereof” (Genentech, Inc., priority 2022, dated 2025)

Assays:
Assay type in all cases: cell-based
[1] = system: AsPC-1 (homozygous mutant KRAS G12D human pancreatic cell line); experiment: KRAS 3D-Cell Proliferation Assay, AsPC-1 (Example 503); conditions: Homo sapiens, ASPC1, 168 h, AsPC-1 3D culture, 7 days, CellTiter-Glo 3D; read-out: Prolif AsPC-1 3D ATP IC50
Summary of the method: (§1)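 Luminescent ATP readout (CellTiter-Glo 3D, with mechanical mixing) measures growth of cells cultured in 3D after a 7-day compound exposure at 37° C. Percent inhibition is referenced to vehicle (DMSO) and 1 μM staurosporine controls, and IC50 comes from a four-parameter Hill fit.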

[2] = system: HPAC (homozygous mutant KRAS G12D human pancreatic cell line); experiment: KRAS 3D-Cell Proliferation Assay, HPAC (Example 503); conditions: Homo sapiens, HPAC, 168 h, HPAC 3D culture, 7 days, CellTiter-Glo 3D; read-out: Prolif HPAC 3D ATP IC50
Summary of the method: as §1

[3] = system: H1975 (KRAS wild type human lung adenocarcinoma cell line); experiment: KRAS 3D-Cell Proliferation Assay, H1975 (Example 503); conditions: Homo sapiens, NCI-H1975, 168 h, H1975 3D culture, 7 days, CellTiter-Glo 3D; read-out: Prolif H1975 3D ATP IC50
Summary of the method: as §1

Structure (SMILES): C[C@@H]1Oc2nc(-c3c(C(F)(F)F)cc(F)c(N)c3F)c(F)c3nc(OC[C@@]45CCCN4C[C@H](F)C5)nc(c23)N2C[C@H]3CC[C@H](N3)[C@@H]12 [Compound 90, 2,6-Difluoro-3-((5S,5aS,6S,9R)-1-fluoro-12-(((2R,7aS)-2-fluorotetrahydro-1H-pyrrolizin-7a(5H)-yl)methoxy)-5-methyl-5a,6,7,8,9,10-hexahydro-5H-4-oxa-3,10a,11,13,14-pentaaza-6,9-methanonaphtho[1,8-ab]heptalen-2-yl)-4-(trifluoromethyl)aniline]
- IC50 [1]: 0.0189 µM
- IC50 [2]: 0.0073 µM
- IC50 [3]: 1.14 µM

Structure (SMILES): Cc1nc(N)cc(-c2nc3c4c(nc(OCC5(CN6CCOCC6)CC5)nc4c2F)N2C[C@H]4CC[C@H](N4)[C@H]2[C@H](C)O3)c1C(F)(F)F [Compound 210, 4-((5S,5aS,6S,9R)-1-Fluoro-5-methyl-12-((1-(morpholinomethyl)cyclopropyl)methoxy)-5a,6,7,8,9,10-hexahydro-5H-4-oxa-3,10a,11,13,14-pentaaza-6,9-methanonaphtho[1,8-ab]heptalene-2-yl)-6-methyl-5-(trifluoromethyl)pyridin-2-amine]
- IC50 [1]: 0.0036 µM
- IC50 [2]: 0.00181 µM
- IC50 [3]: 0.868 µM

Structure (SMILES): Cc1c(F)c(N)cc(-c2nc3c4c(nc(OC[C@@]56CCCN5C[C@H](F)C6)nc4c2F)N2C[C@H]4CC[C@H](N4)[C@@H]2C(C)O3)c1C(F)(F)F (single isomer, unassigned) [237 (isomer 2)]
- IC50 [1]: 0.2 µM
- IC50 [2]: 0.00363 µM
- IC50 [3]: 1.04 µM

Structure (SMILES): C[C@@H]1Oc2nc(-c3cc(N)c(F)cc3C(F)(F)F)c(F)c3nc(OC[C@@H]4CC[C@H]5COCCN54)nc(c23)N2C[C@H]3CC[C@H](N3)[C@@H]12 [Compound 70, 2-Fluoro-5-((5S,5aS,6S,9R)-1-fluoro-12-(((6S,8aS)-hexahydro-1H-pyrrolo[2,1-c][1,4]oxazin-6-yl)methoxy)-5-methyl-5a,6,7,8,9,10-hexahydro-5H-4-oxa-3,10a,11,13,14-pentaaza-6,9-methanonaphtho[1,8-ab]heptalen-2-yl)-4-(trifluoromethyl)aniline]
- IC50 [1]: 0.0441 µM
- IC50 [2]: 0.011 µM
- IC50 [3]: 1.7 µM

Structure (SMILES): Cc1c(F)c(N)cc(-c2nc3c4c(nc(OC[C@@]56CCCN5C[C@H](F)C6)nc4c2F)N2C[C@H]4CC[C@H](N4)[C@@H]2[C@@H](C(F)(F)F)O3)c1C(F)(F)F [Compound 248, 2-Fluoro-5-((5S,5aR,6S,9R)-1-fluoro-12-(((2R,7aS)-2-fluorotetrahydro-1H-pyrrolizin-7a(5H)-yl)methoxy)-5-(trifluoromethyl)-5a,6,7,8,9,10-hexahydro-5H-4-oxa-3,10a,11,13,14-pentaaza-6,9-methanonaphtho[1,8-ab]heptalene-2-yl)-3-methyl-4-(trifluoromethyl)aniline]
- IC50 [1]: 0.0279 µM
- IC50 [2]: 0.0125 µM
- IC50 [3]: 0.244 µM

Structure (SMILES): C[C@@H]1Oc2nc(-c3cc(N)c(F)c(F)c3CC(F)F)c(F)c3nc(OC[C@@]45CCCN4C[C@H](F)C5)nc(c23)N2C[C@H]3CC[C@H](N3)[C@@H]12 [Compound 190, 4-(2,2-Difluoroethyl)-2,3-difluoro-5-((5S,5aS,6S,9R)-1-fluoro-12-(((2R,7aS)-2-fluorotetrahydro-1H-pyrrolizin-7a(5H)-yl)methoxy)-5-methyl-5a,6,7,8,9,10-hexahydro-5H-4-oxa-3,10a,11,13,14-pentaaza-6,9-methanonaphtho[1,8-ab]heptalene-2-yl)aniline]
- IC50 [1]: 0.0126 µM
- IC50 [2]: 0.0022 µM
- IC50 [3]: 1.56 µM

Structure (SMILES): Cc1c(F)c(N)cc(-c2nc3c4c(nc(OC[C@@]56CCCN5C/C(=C\F)C6)nc4c2F)N2C[C@H]4CC[C@H](N4)[C@H]2[C@H](C)O3)c1C(F)(F)F [Compound 64, 2-fluoro-5-((5S,5aS,6S,9R)-1-fluoro-12-(((S,Z)-2-(fluoromethylene)tetrahydro-1H-pyrrolizin-7a(5H)-yl)methoxy)-5-methyl-5a,6,7,8,9,10-hexahydro-5H-4-oxa-3,10a,11,13,14-pentaaza-6,9-methanonaphtho[1,8-ab]heptalen-2-yl)-3-methyl-4-(trifluoromethyl)aniline]
- IC50 [1]: 0.0009 µM
- IC50 [2]: 0.00046 µM
- IC50 [3]: 0.235 µM

Structure (SMILES): C[C@@H]1Oc2nc(-c3cc(N)c(F)c(Cl)c3CC(F)F)c(F)c3nc(OC[C@@]45CCCN4C[C@H](F)C5)nc(c23)N2C[C@H]3CC[C@H](N3)[C@@H]12 [Compound 186, 3-Chloro-4-(2,2-difluoroethyl)-2-fluoro-5-((5S,5aS,6S,9R)-1-fluoro-12-(((2R,7aS)-2-fluorotetrahydro-1H-pyrrolizin-7a(5H)-yl)methoxy)-5-methyl-5a,6,7,8,9,10-hexahydro-5H-4-oxa-3,10a,11,13,14-pentaaza-6,9-methanonaphtho[1,8-ab]heptalene-2-yl)aniline]
- IC50 [1]: 0.0089 µM
- IC50 [2]: 0.00258 µM
- IC50 [3]: 1.09 µM

Structure (SMILES): Cc1nc(N)cc(-c2nc3c4c(nc(OC[C@@H]5CC[C@H]6COCCN65)nc4c2F)N2C[C@H]4CC[C@H](N4)[C@H]2[C@H](C)O3)c1C(F)(F)F [Compound 112, 4-((5S,5aS,6S,9R)-1-fluoro-12-(((6S,8aS)-hexahydro-1H-pyrrolo[2,1-c][1,4]oxazin-6-yl)methoxy)-5-methyl-5a,6,7,8,9,10-hexahydro-5H-4-oxa-3,10a,11,13,14-pentaaza-6,9-methanonaphtho[1,8-ab]heptalen-2-yl)-6-methyl-5-(trifluoromethyl)pyridin-2-amine]
- IC50 [1]: 0.0316 µM
- IC50 [2]: 0.00759 µM
- IC50 [3]: 1.47 µM

Structure (SMILES): Cc1c(F)c(N)cc(-c2nc3c4c(nc(OCC5(CN6CCOCC6)CC5)nc4c2F)N2C[C@H]4CC[C@H](N4)[C@H]2[C@H](C(F)(F)F)O3)c1C(F)(F)F [Compound 249, 2-Fluoro-5-((5R,5aS,6S,9R)-1-fluoro-12-((1-(morpholinomethyl)cyclopropyl)methoxy)-5-(trifluoromethyl)-5a,6,7,8,9,10-hexahydro-5H-4-oxa-3,10a,11,13,14-pentaaza-6,9-methanonaphtho[1,8-ab]heptalene-2-yl)-3-methyl-4-(trifluoromethyl)aniline]
- IC50 [1]: 0.0011 µM
- IC50 [2]: 0.00137 µM
- IC50 [3]: 0.417 µM

Structure (SMILES): Cc1c(F)c(N)cc(-c2nc3c4c(nc(OC[C@@]56CCCN5C[C@H](F)C6)nc4c2F)N2C[C@H]4CC[C@H](N4)[C@H]2[C@H](C)O3)c1CC(F)F [Compound 75, 4-(2,2-Difluoroethyl)-2-fluoro-5-((5S,5aS,6S,9R)-1-fluoro-12-(((2R,7aS)-2-fluorotetrahydro-1H-pyrrolizin-7a(5H)-yl)methoxy)-5-methyl-5a,6,7,8,9,10-hexahydro-5H-4-oxa-3,10a,11,13,14-pentaaza-6,9-methanonaphtho[1,8-ab]heptalen-2-yl)-3-methylaniline]
- IC50 [1]: 0.0052 µM
- IC50 [2]: 0.00277 µM
- IC50 [3]: 0.797 µM

Structure (SMILES): Cc1nc(N)cc(-c2nc3c4c(nc(OC[C@@]56CCCN5C[C@H](F)C6)nc4c2F)N2C[C@H]4CC[C@H](N4)[C@H]2[C@H](C)O3)c1C(F)(F)F [Compound 215, 4-((5S,5aS,6S,9R)-1-Fluoro-12-(((2R,7aS)-2-fluorotetrahydro-1H-pyrrolizin-7°(5H)-yl)methoxy)-5-methyl-5°,6,7,8,9,10-hexahydro-5H-4-oxa-3,10°,11,13,14-pentaaza-6,9-methanonaphtho[1,8-ab]heptalen-2-yl)-6-methyl-5-(trifluoromethyl)pyridin-2-amine]
- IC50 [1]: 0.0078 µM
- IC50 [2]: 0.0025 µM
- IC50 [3]: 0.831 µM

Structure (SMILES): Cc1c(F)c(N)cc(-c2nc3c4c(nc(OCC5(CN6CC7(COC7)C6)CC5)nc4c2F)N2C[C@H]4CC[C@H](N4)[C@H]2[C@H](C)O3)c1C(F)(F)F [Compound 174, 5-((5S,5aS,6S,9R)-12-((1-((2-Oxa-6-azaspiro[3.3]heptan-6-yl)methyl)cyclopropyl)methoxy)-1-fluoro-5-methyl-5a,6,7,8,9,10-hexahydro-5H-4-oxa-3,10a,11,13,14-pentaaza[6,9]methanonaphtho[1,8-ab]heptalene-2-yl)-2-fluoro-3-methyl-4-(trifluoromethyl)aniline]
- IC50 [1]: 0.0013 µM
- IC50 [2]: 0.00386 µM
- IC50 [3]: 0.227 µM

Structure (SMILES): Cc1nc(N)cc(-c2nc3c4c(nc(OC[C@@]56CCCN5C[C@H](F)C6)nc4c2F)N2C[C@H]4CC[C@H](N4)[C@H]2[C@H](C(F)(F)F)O3)c1C(F)(F)F [Compound 242, 4-((5R,5aS,6S,9R)-1-Fluoro-12-(((2R,7aS)-2-fluorotetrahydro-1H-pyrrolizin-7a(5H)-yl)methoxy)-5-(trifluoromethyl)-5a,6,7,8,9,10-hexahydro-5H-4-oxa-3,10a,11,13,14-pentaaza-6,9-methanonaphtho[1,8-ab]heptalen-2-yl)-6-methyl-5-(trifluoromethyl)pyridin-2-amine]
- IC50 [1]: 0.0078 µM
- IC50 [2]: 0.00511 µM
- IC50 [3]: 1.04 µM

Structure (SMILES): Cc1cc(N)cc(-c2nc3c4c(nc(OC[C@]56CCCN5CC(F)(F)C6)nc4c2F)N2C[C@H]4CC[C@H](N4)[C@H]2[C@H](C)O3)c1C(F)(F)F [Compound 69, 3-((5S,5aS,6S,9R)-12-(((R)-2,2-Difluorotetrahydro-1H-pyrrolizin-7a(5H)-yl)methoxy)-1-fluoro-5-methyl-5a,6,7,8,9,10-hexahydro-5H-4-oxa-3,10a,11,13,14-pentaaza-6,9-methanonaphtho[1,8-ab]heptalen-2-yl)-5-methyl-4-(trifluoromethyl)aniline]
- IC50 [1]: 0.0213 µM
- IC50 [2]: 0.00642 µM
- IC50 [3]: 1.28 µM
